Experimental findings from US20240174690A1, “ANNULATED 2-AMINO-3-CYANO THIOPHENES AND DERIVATIVES FOR THE TREATMENT OF CANCER” (BOEHRINGER INGELHEIM INTERNATIONAL GMBH, priority 2021, published 2024) are described below.

A short description of series [1]: Caco-2 assay (permeability PappAB, PappBA, efflux ratio). The format is in vitro ADME. Conditions: human, Caco-2, 10 μM test compound, pH 7.4. In a few lines:
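Bidirectional permeability (apical-to-basolateral and reverse) through polarized Caco-2 monolayers, BSA 0.25% on each side, 37 °C. Donor and receiver sampled at 0-90 min after 25-30 min preincubation, analysed by HPLC/MS/MS. Apparent permeabilities derived from transfer rate normalised to area and t=0 donor concentration; ER taken as PappBA over PappAB.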
For orientation: Passage across Caco-2 layers is used to estimate intestinal permeability.

Series [2] deals with SK-CO-1 cells. In words: SK-CO-1 CTG proliferation assay (120 h) (CRC, G12V). The format is cell-based. As to conditions: Homo sapiens; SK-CO-1 cells (CRC, G12V), CTG 120 h. Summed up: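 Compound exposure lasted 120 h in KRAS G12V SK-CO-1 cells seeded overnight at 500 cells/well in 10% FCS EMEM. CellTiter-Glo RLU normalised to DMSO wells gave percent viability, and a four-parameter model fit yielded IC50.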

The term Papp A→B denotes the apparent permeability from the apical to the basolateral side of a cell layer. As usually defined, the IC50 is the midpoint of a concentration-inhibition curve. A higher IC50 goes with lower potency. Take `CO[C@H]1CCN(C)[C@@H]1[C@H](C)Oc1cc(N2CCN(C)C3(CC3)C2)nc(-c2noc3c2CCC[C@@]32CCCc3sc(N)c(C#N)c32)n1` [II-186]: in series [1] (apical to basolateral), the Papp A→B at 90 min, 10 μM came out at 21 ×10⁻⁶ cm/s. In series [1] (efflux ratio PappBA/PappAB, read-out: Caco ER), the efflux ratio at 90 min, 10 μM is 0.8. Also, the IC50 in series [2] came to 880 nM.
